Reference: PubChem BioAssay (NCI)
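Tested at 5 concentrations; 48 h exposure; 96-well plates; endpoints linearly interpolated, else capped at highest concentration. The concentration for 50% growth inhibition is given as GI50. TGI marks complete inhibition of growth.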

Key:
Experiment in all cases: NCI-60 cell line screen, 48 h
DU-145 prostate = system: DU-145 prostate
RPMI-8226 leukemia = system: RPMI-8226 leukemia
LXFL 529 NSCLC = system: LXFL 529 NSCLC
T-47D breast = system: T-47D breast
M19-MEL melanoma = system: M19-MEL melanoma
NCI/ADR-RES ovarian = system: NCI/ADR-RES ovarian
HCT-15 colon = system: HCT-15 colon
NCI-H23 lung = system: NCI-H23 lung
LOX IMVI melanoma = system: LOX IMVI melanoma
BT-549 breast = system: BT-549 breast

Structure (SMILES)	GI50 (DU-145 prostate)	TGI (DU-145 prostate)	GI50 (RPMI-8226 leukemia)	GI50 (LXFL 529 NSCLC)	TGI (LXFL 529 NSCLC)	GI50 (T-47D breast)	TGI (T-47D breast)	GI50 (M19-MEL melanoma)	TGI (M19-MEL melanoma)	GI50 (NCI/ADR-RES ovarian)	TGI (NCI/ADR-RES ovarian)	GI50 (HCT-15 colon)	TGI (HCT-15 colon)	GI50 (NCI-H23 lung)	TGI (NCI-H23 lung)	GI50 (LOX IMVI melanoma)	TGI (LOX IMVI melanoma)	GI50 (BT-549 breast)	TGI (BT-549 breast)	TGI (RPMI-8226 leukemia)
CC[CH2][Sn]([CH2]CC)([O]C(=O)Cc1ccc(F)cc1)[O][Sn]([CH2]CC)([CH2]CC)[O]C(=O)Cc1ccc(F)cc1	537 nM	1.8 µM	38.2 nM	12.9 nM	0.099 µM	29.6 nM	0.211 µM	59.3 nM	0.276 µM	574 nM	1.93 µM	218 nM	0.658 µM	53.9 nM	0.276 µM	85.1 nM	0.232 µM	256 nM	0.92 µM	
CCCCCC/C=C1\CCC(CN(C)C)C1=O (centres undefined)		41.3 µM			3.8 µM		9.81 µM		7.25 µM		44.4 µM		6.61 µM		23.2 µM		3.79 µM		53.1 µM	4.7 µM
C=C(CN(C)C)C(=O)c1ccc(Oc2ccccc2)cc1		27.6 µM			5.04 µM		13.7 µM		14.8 µM		> 100 µM		11 µM		24.9 µM		28.5 µM		12.9 µM	> 21.8 µM
